≈ marks a conversion by molar mass, not a printed value. Read-outs that look alike come from different tables or passages of the source. Each block holds one molecule with its values, some of them ahead of it.
Key:
[1] = cited from earlier work
[2] = pH range of 4–9; ref EFSA 2003; cited from earlier work
[3] = test system: Pf NF54; settings: ref Beteck et al., cited from earlier work
[4] = test system: multidrug resistant Pf K1; parameters: method as in Beteck et al., 2018; settings: ref Beteck et al., 2018; read-out: IC50 against multidrug resistant Pf K1; cited from earlier work
[5] = parameters: method as in Wang et al., 2014; settings: dosed as a micro-suspension in mice; ref Wang et al., 2014; cited from earlier work
[6] = Lipophilicity, 1-octanol/phosphate buffer pH 7.4 (LogD7.4); type: physicochemical
Description: Stock solutions ([…]) of compounds were diluted to 100 μM in 96-well deep-well plate containing 1-octanol and phosphate buffer at pH 7.4. The plate was agitated on an orbital shaker at 750 rpm for 2 h. The organic and buffer layers of each well were transferred separately to a new analysis plate. The samples were analysed with the HPLC-diode array detection as described for kinetic solubility. Samples from both layers were analysed to determine LogD7.4 values.

[7] = Metabolic stability in human liver microsomes; type: in vitro ADME
Description: (§1) A 5-point metabolic stability assay in human and mouse liver microsomes were performed in duplicate in 96-well plates. Stock solution of RMB005, −059 and 060 prepared in DMSO were individually incubated at 37°C in mouse and pooled human liver microsomes (0.4 mg/mL). An aliquot was removed at 0 min and quenched with ice cold acetonitrile containing the internal standard carbamazepine (0.1 μM). The cofactor NADPH was added, and the reactions were subsequently stopped at time points 5, 10, 30, and 60 min by removal of an aliquot and quenching with ice cold acetonitrile containing the internal standard. The supernatant of all samples were analysed via LC-MS/MS analysis (reverse phase Gemini NX-C18 column and Shimadzu HPLC and AB Sciex 3200 Q TRAP MS). Calculation of in vitro t1/2, intrinsic clearance rate (CLint) and predicted in vivo clearance (CLH) was carried out using the following equations ([Obach 1999]). CLintClint= 0.693/t1/2(min) ×Volume of incubation (μL)/microsomal protein (μg) Where t1/2 is calculated in minutes.
(§2) Predicted in vivo CLH CLH=Q × fu(plasma)×CLint/fu(mic)/Q+ fu(plasma)× CLint/fu(mic) Where Q is the hepatic blood flow of mouse (90 mL/min/kg) or human (20.7 mL/min/kg). Fu(plasma) is the unbound drug fraction in the plasma and fu(mic) is the unbound fraction in the microsomes.
(§3) The equation below was used in the case of RMB059 and -060, where protein-binding data were not available. CLH=Q × CLint/Q+ CLint

[8] = test system: Toxoplasma gondii (Tg); parameters: method as in Beteck et al., 2018; settings: in vitro; ref Beteck et al., 2018; read-out: IC50 against Toxoplasma gondii; cited from earlier work
[9] = Passive permeability, parallel artificial membrane permeation assay (PAMPA); type: in vitro ADME; settings: donor pH 6.5, acceptor pH 7.4, 4 h, read-out: Permeability (LogPapp) (converted)
Description: A parallel artificial membrane permeation assay (PAMPA) was used to assess the passive permeability of compounds with a 96-well MultiScreen filter plate ([…] pore size, Millipore). The filter plate was precoated with 5% hexadecane in hexane. Stock solutions of compounds were diluted to 1 mM in a donor buffer (pH 6.5). Lucifer yellow was added to the apical wells of the precoated MultiScreen plate containing compound donor solution. The donor buffer solutions were spiked with each test compound (1 mM). The acceptor-buffer solution was prepared by adding 10 μL DMSO to 990 μL acceptor buffer (pH 7.4) and 250 μL were added to the basolateral (acceptor) wells. The donor plate was carefully inserted into the acceptor plate and incubated at room temperature for 4 h. After the incubation period, 50 μL of samples from the acceptor plate were transferred to a round bottom 96-well plate, together with 30 μL of donor buffer for matrix matching. Theoretical equilibrium samples for each test compound were prepared by adding 150 μL of donor solutions to 250 μL acceptor solutions and left at room temperature. These theoretical equilibrium samples represent complete transfer of the compound into the donor well. For the theoretical equilibrium samples, 80 μL were added to the analysis plate. Lastly, 160 μL of the internal standard carbamazepine (0.1 μM) was added to all acceptor and equilibrium samples. A portion of the sample containing Lucifer yellow was analyzed on a BioRad iMark^TM Microplate Absorbance Reader (BioRad, Hercules, CA, United States; excitation 490 nm, emission 510–570 nm) to determine that P app was within the acceptable range (<50 nm/s). Samples were analysed using reverse phase Gemini NX-C18 column (5 μM, 2.1 mm × 50 mm) with a Shimadzu HPLC coupled with an AB Sciex 3200 Q TRAP MS). The Papp for each compound was determined using. C=VD × VA/(VD+VA) ×A×t where VA = volume of donor compartment (0.15 cm^3), VD = volume of acceptor compartment (0.25 cm^3), A = accessible filter area (0.24 cm^2) and t = incubation time (14,400 s). […]

[10] = test system: multidrug resistant Pf W2; parameters: method as in Beteck et al., 2018; settings: ref Beteck et al., 2018; read-out: Activity against multidrug resistant Pf W2; cited from earlier work
[11] = test system: P. berghei sporozoite liver stages; settings: abstract; no reference given; cited from earlier work
[12] = test system: Neospora caninum; parameters: method as in Beteck et al., 2018; settings: in vitro; ref Beteck et al., 2018; read-out: IC50 against Neospora caninum; cited from earlier work
[13] = Metabolic stability in mouse liver microsomes; type: in vitro ADME
Description: as §1, §2, §3

[14] = Plasma stability; type: in vitro ADME; settings: human plasma
Description: Stock solutions of compounds in DMSO were used to spike pooled human plasma. Samples were transferred in duplicate to 6 different wells of a 96-deep well plate. An aliquot of each sample was immediately quenched with ice cold acetonitrile containing the internal standard carbamazepine (0.1 μM), after which the plate was incubated in a water bath (37°C for 1 h). Aliquots of samples were removed at 5, 15, 40, 60, and 180 min and quenched with ice cold acetonitrile. After samples of the final time point were precipitated, the supernatant was transferred to a round bottom 96-well plate for analysis by LC-MS/MS using a reverse phase Gemini NX-C18 column (5 μM, 2.1 mm × 50 mm) with a Shimadzu HPLC coupled with an AB Sciex 3200 Q TRAP MS). The peak area ratios were used to calculate the amount of parent compound remaining and t1/2 in plasma, using the following equations.
% Parent remaining % Parent= Normalised peak area of sample at timepoint/Normalised peak area of sample at t=0 x 100
Predicted t1/2 t1/2= −0.693/λ Where λ is the slope of the Ln % parent remaining vs. time curve.

[15] = parameters: method as in Tanner et al., 2019; settings: ref Tanner et al., 2019; cited from earlier work
[16] = cited from earlier work; remark: listed apart in the source
[17] = 2018, read-out: IC50 against Pf NF54
[18] = *protein binding data not included

Compound: CCCCCCCCCCOc1cc2c(O)c(C(=O)OCC)cnc2cc1OCC [DQ, decoquinate]
Octanol/water partition coefficient (Log Kow or LogP) ([1]; 25°C, pH 5, 7, or 9, ref Bampidis et al., 2019): ≥ 5.7
LogD ([1]; ref Burger et al., 2018): 7.8
Solubility in buffered aqueous solutions [2]: 0.024 µM (≈ 0.01 µg/mL)
Solubility in buffered water [2]: 0.01 µg/mL (≈ 0.0239 µM)
IC50 ([3]; Pf NF54, 2018, read-out: NF54 IC50 (line in the PK figures, in vitro IC50 in the discussion)): 26 nM
IC50 ([3]; 2016, read-out: In vitro activity against chloroquine-sensitive NF54 asexual parasites): 26.6 nM
IC50 [3, 17]: 26.6 nM
IC50 [4]: 64.9 nM
Relative BA [5]: 6%

logD at 2 h [6]: 2.9
Estimated in vivo CLH HLM [7, 18]: 18.6* mL/min/kg
CLint scaled ([7]; human, pooled liver microsomes, calculated from t1/2 in HLM, read-out: In vitro CLint HLM): 183 mL/min/kg
half-life ([7]; pooled liver microsomes, human liver microsomes, NADPH, read-out: Degradation half-life HLM): 13.1 min
Papp at 4 h, 1 mM [9]: 0.501 ×10⁻⁶ cm/s
Estimated in vivo CLH MLM [13, 18]: 77.2* mL/min/kg
half-life ([13]; mouse liver microsomes, NADPH, read-out: Degradation half-life MLM): 14.5 min
CLint scaled ([13]; mouse, liver microsomes, calculated from t1/2 in MLM, read-out: In vitro CLint MLM): 541 mL/min/kg
Plasma stability (in words) [14]: high degree of lability
half-life ([14]; pooled plasma, 37°C): < 8 min
Compound: CCCCCCCCCCOc1cc2c(OC(=O)N3CCN(S(C)(=O)=O)C3=O)c(C(=O)OCC)cnc2cc1OCC [RMB060]
IC50 [8]: 1.1 nM
IC50 [3, 17]: 1.4 nM
IC50 [10]: 1.1 nM
Activities against P. berghei sporozoite liver stages (in words) [11]: sub-nanomolar
IC50 [12]: 0.6 nM
IC50 [4]: 1.3 nM

Compound: CCCCCCCCCCOc1cc2c(=O)c(C(=O)NCCOCCO)cn(CCO)c2cc1OCC [RMB073]
Predicted kinetic solubility at pH 7.4 [15]: > 150 µM
Plasma half-life [16]: greater than 6 h

From PMC9450014, “The evaluation of ADME and pharmacokinetic properties of decoquinate derivatives for the treatment of malaria” (Frontiers in Pharmacology, 2022)
